One test concerns the target T1, hFFA2 (Homo sapiens, UniProt O15552).
T1 construct: expressed in transfected cells; host or cells: Flp-In T-Rex 293 cells, doxycycline-induced
T1 sequence (O15552 1-330): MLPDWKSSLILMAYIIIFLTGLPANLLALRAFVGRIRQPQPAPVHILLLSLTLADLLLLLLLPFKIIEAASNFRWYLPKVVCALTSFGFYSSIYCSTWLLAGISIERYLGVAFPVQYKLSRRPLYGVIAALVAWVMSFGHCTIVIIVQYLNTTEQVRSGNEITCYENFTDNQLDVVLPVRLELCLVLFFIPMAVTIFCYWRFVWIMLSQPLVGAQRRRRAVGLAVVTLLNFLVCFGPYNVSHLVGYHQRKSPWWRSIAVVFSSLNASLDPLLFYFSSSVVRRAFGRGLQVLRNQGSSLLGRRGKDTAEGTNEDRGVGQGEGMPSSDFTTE
Description: cAMP assay, antagonist mode, Flp-In T-Rex 293 cells expressing hFFA2-eYFP. As to conditions: for cAMP pIC50: hFFA2, antagonist mode, propionate at EC80, mean ± SEM, three or more experiments; for LLEcAMP: pIC50, cAMP – ClogP; for hFFA2 cAMP (pIC50) / IC50: supplementary CSV; for IC50: read-out: hFFA2 cAMP (pIC50) (converted). The class given is cell-based. The method, then: (§1) The activity of the compounds on FFA2 was evaluated in two different functional antagonist assays, both using propionate at EC80 as the agonist. The GTPγS assay reflects receptor activation by directly assessing G protein recruitment, whereas the cAMP assay, performed in whole cells, reflects a physiologically relevant downstream second messenger.
The hFFA2-eYFP and hFFA3-eYFP Flp-In T-Rex 293 cell lines were maintained in Dulbecco’s modified Eagle mMedium (DMEM, ThermoFisher #11965092) supplemented with 10% (v/v) fetal bovine serum, 100 U/mL penicillin, 100 μg/mL streptomycin, 5 μg/mL blasticidin S, and 200 μg/mL hygromycin B and incubated at 37 °C and 5% CO2 in a humidified incubator. Cells were passaged at 70–80% confluency.
To determine the compound’s ability to activate or inhibit the Gi-coupled FFA2 or FFA3, intracellular cAMP concentrations were determined using Flp-In T-Rex293 cells induced to express hFFA2-eYFP or hFFA3-eYFP. Experiments were carried out using a homogeneous time-resolved FRET-based detection kit (CisBio, PerkinElmer #62AM9PEC) according to the manufacturer’s protocol. The day before the assay, 10,000 cells/well were plated in DMEM supplemented with penicillin/streptomycin (100 units/mL and […], respectively), 5 μg/mL blasticidin S, and 200 μg/mL hygromycin B in 96-well cell culture microplates (Greiner Bio-One) and induced to express hFFA2-eYFP or hFFA3-YFP with 100 ng/mL doxycycline.
In antagonist mode, the cells were pre-incubated for 20 min with antagonist test compounds in HBSS together with 50 μM IBMX at rt. Then, the cells were further incubated for 25 min at rt in HBSS with the agonist compound, sodium propionate at EC80 (51.4 μM for FFA2, 13.2 μM for FFA3), and 3 μM forskolin. Reactions were stopped, and the output was measured with an Envision plate reader using a time-resolved fluorescence protocol, measuring the light emission at 620 and 665 nm. All analyses were performed in triplicate and analyzed using GraphPad Prism (version 9).

The target of another test is T2, human FFA2-eYFP (Homo sapiens, UniProt O15552).
T2 construct: expressed in transfected cells; host or cells: membranes of Flp-In T-Rex 293 cells induced to express the construct
T2 sequence (O15552 1-330): T1 sequence (O15552 1-330)
As to the kind of experiment: [35S]GTPγS incorporation assay, membranes of Flp-In T-Rex 293 cells. Particulars: for GTPγS pIC50: hFFA2, propionate at EC80, mean ± SEM, three or more experiments; for LLEGTPγS: pIC50, GTPγS – ClogP. The class given is biochemical. The method, then: as §1
Functional activity of the compounds were tested in a [^35S]GTPγS incorporation assay using membranes of Flp-In T-Rex 293 cells induced to express human FFA2-eYFP. […] The reaction was initiated by addition of [^35S]GTPγS (100 nCi per reaction) containing 1 μM GDP and incubated at 30 °C for 60 min. The reaction was terminated by rapid vacuum filtration through GF/C glass fiber filter-bottom 96-well microplates (PerkinElmer Life Sciences, Beaconsfield, UK) using a UniFilter FilterMate Harvester (PerkinElmer). Unbound radioligands were removed from filters by three washes with ice-cold PBS. MicroScint-20 (PerkinElmer) was added to dried filters, and [^35S]GTPγS binding was quantified by liquid scintillation spectroscopy.

Results on 14 molecules are retold here after PMC10547238, “Discovery of Potent Tetrazole Free Fatty Acid Receptor 2 Antagonists” (Journal of Medicinal Chemistry, 2023).

Take `O=C(N[C@@H](Cc1ccc(C(F)(F)F)cc1)Cc1nnn[nH]1)C1Cc2ccccc21` (stereo partly drawn) [Compound 16b, N-((S)-1-(1H-Tetrazol-5-yl)-3-(4-(trifluoromethyl)phenyl)propan-2-yl)bicyclo[4.2.0]octa-1(6),2,4-triene-7-carboxamide]: at hFFA2, the “cAMP pIC50” value amounted to 7.96 ± 0.03, the LLEcAMP amounted to 5.39 and the “hFFA2 cAMP (pIC50)” value is listed as 7.95 ± 0.12. In addition, on human FFA2-eYFP, the “GTPγS pIC50” value is reported as 8.06 ± 0.06 and the LLEGTPγS was 5.49.

In the case of `O=C(Cc1cccnc1)N[C@@H](Cc1ccc(C(F)(F)F)cc1)Cc1nnn[nH]1` [Compound 16s, (S)-3-(2-((1-(1H-Tetrazol-5-yl)-3-(4-(trifluoromethyl)phenyl)propan-2-yl)amino)-2-oxoethyl)pyridin-1-ium 2,2,2-trifluoroacetate], the “decrease in potency compared to 16a” value at hFFA2 (cAMP assay) came to 7 fold. At hFFA2, the “cAMP pIC50” value is recorded as 6.89 ± 0.10, the LLEcAMP was 5.82 and the IC50 is 0.0912 µM. Moreover, the “decrease in potency compared to 16a” value on human FFA2-eYFP (GTPγS assay) is reported as 7 fold. Moreover, at human FFA2-eYFP, the “GTPγS pIC50” value was 7.29 ± 0.07 and the LLEGTPγS came to 6.22.

As for `O=C(Cc1cccc(F)c1)N[C@@H](Cc1ccc(C(F)(F)F)cc1)Cc1nnn[nH]1` [Compound 16c, (S)-N-(1-(1H-Tetrazol-5-yl)-3-(4-(trifluoromethyl)phenyl)propan-2-yl)-2-(3-fluorophenyl)acetamide], at hFFA2, the “cAMP pIC50” value was determined as 8.26 ± 0.16 and the LLEcAMP was determined as 5.55. Besides, on human FFA2-eYFP, the “GTPγS pIC50” value was 8.13 ± 0.04 and the LLEGTPγS came to 5.42.

For the molecule `O=C(CC1CCCC1)N[C@@H](Cc1ccc(C(F)(F)F)cc1)Cc1nnn[nH]1` [Compound 16o, (S)-N-(1-(1H-Tetrazol-5-yl)-3-(4-(trifluoromethyl)phenyl)propan-2-yl)-2-cyclopentylacetamide], on hFFA2, the “cAMP pIC50” value amounted to 5.24 ± 0.17, the LLEcAMP came out at 2.35 and the “hFFA2 cAMP (pIC50)” value is recorded as 5.22 ± 0.18. Further, on human FFA2-eYFP, the “GTPγS pIC50” value turned out to be 5.78 ± 0.14 and the LLEGTPγS was found to be 2.89.

Regarding `O=C(Cc1cccc(C(F)(F)F)c1)N[C@@H](Cc1ccc(C(F)(F)F)cc1)Cc1nnn[nH]1` [Compound 16i, (S)-N-(1-(1H-Tetrazol-5-yl)-3-(4-(trifluoromethyl)phenyl)propan-2-yl)-2-(3-(trifluoromethyl)phenyl)acetamide], at hFFA2, the “cAMP pIC50” value is reported as 7.68 ± 0.11, the LLEcAMP was determined as 4.23 and the IC50 is 0.0158 µM. For the same molecule, on human FFA2-eYFP, the “GTPγS pIC50” value worked out at 8.05 ± 0.21 and the LLEGTPγS was found to be 4.60.

For `O=C(Cc1cccc(OC(F)(F)F)c1)N[C@@H](Cc1ccc(C(F)(F)F)cc1)Cc1nnn[nH]1` [Compound 16n, (S)-N-(1-(1H-Tetrazol-5-yl)-3-(4-(trifluoromethyl)phenyl)propan-2-yl)-2-(3-(trifluoromethoxy)phenyl)acetamide], on hFFA2, the “cAMP pIC50” value is 7.44 ± 0.18, the LLEcAMP is listed as 3.85 and the IC50 was 0.0468 µM. At human FFA2-eYFP, the “GTPγS pIC50” value is listed as 7.50 ± 0.23 and the LLEGTPγS is listed as 3.91.

Regarding `O=C(Cc1cccc(Cl)c1)N[C@H](CCc1nnn[nH]1)Cc1ccc(C(F)(F)F)cc1` [Compound 21, (R)-N-(4-(1H-Tetrazol-5-yl)-1-(4-(trifluoromethyl)phenyl)butan-2-yl)-2-(3-chlorophenyl)-acetamide], at hFFA2, the “cAMP pIC50” value came out at 7.55 ± 0.14, the LLEcAMP came to 3.75 and the IC50 is 0.0309 µM. In addition, the “potency decrease on elongated tetrazole linker” value on hFFA2 (vs 16e, cAMP assay) was 5–6 fold. Also, on human FFA2-eYFP, the “GTPγS pIC50” value is recorded as 7.72 ± 0.12 and the LLEGTPγS is recorded as 3.92. The “potency decrease on elongated tetrazole linker” value on human FFA2-eYFP (vs 16e, GTPγS assay) is on record as 5–6 fold.

In the case of `O=C(CCc1ccccc1)N[C@@H](Cc1ccc(C(F)(F)F)cc1)Cc1nnn[nH]1` [Compound 16q, (S)-N-(1-(1H-Tetrazol-5-yl)-3-(4-(trifluoromethyl)phenyl)propan-2-yl)-3-phenylpropanamide], at hFFA2, the “cAMP pIC50” value was 6.78 ± 0.14, the LLEcAMP is recorded as 3.89 and the IC50 is 0.186 µM. In addition, at human FFA2-eYFP, the “GTPγS pIC50” value was 7.19 ± 0.04 and the LLEGTPγS is 4.30.

On to `O=C(Cc1ccc(Cl)nc1)N[C@@H](Cc1ccc(C(F)(F)F)cc1)Cc1nnn[nH]1` [Compound 16v, (S)-5-(2-((1-(1H-Tetrazol-5-yl)-3-(4-(trifluoromethyl)phenyl)propan-2-yl)amino)-2-oxoethyl)-2-chloropyridin-1-ium 2,2,2-trifluoroacetate], for which, on hFFA2, the “cAMP pIC50” value amounted to 6.98 ± 0.13, the LLEcAMP is 5.20 and the IC50 is 0.0955 µM. Also, at human FFA2-eYFP, the “GTPγS pIC50” value is reported as 7.20 ± 0.14 and the LLEGTPγS is listed as 5.42.

On to `O=C(Cc1ccccn1)N[C@@H](Cc1ccc(C(F)(F)F)cc1)Cc1nnn[nH]1` [Compound 16r, (S)-2-(2-((1-(1H-Tetrazol-5-yl)-3-(4-(trifluoromethyl)phenyl)propan-2-yl)amino)-2-oxoethyl)pyridin-1-ium 2,2,2-trifluoroacetate], for which, at hFFA2, the “cAMP pIC50” value is given as 5.93 ± 0.15, the LLEcAMP was 4.86 and the IC50 is 1.45 µM. In addition, at human FFA2-eYFP, the “GTPγS pIC50” value was 6.71 ± 0.17 and the LLEGTPγS is reported as 5.64.

With `O=C(Cc1cccc(F)c1)N[C@@H](Cc1ccccc1)Cc1nnn[nH]1` [Compound 16d, (S)-2-(3-Fluorophenyl)-N-(1-phenyl-3-(1H-tetrazol-5-yl)propan-2-yl)acetamide], at hFFA2, the “cAMP pIC50” value is given as 6.91 ± 0.07, the LLEcAMP was determined as 5.09 and the IC50 is 0.102 µM. Further, at human FFA2-eYFP, the “GTPγS pIC50” value amounted to 7.47 ± 0.04 and the LLEGTPγS came out at 5.65.

As for `CCCCCC(=O)N[C@@H](Cc1ccc(C(F)(F)F)cc1)Cc1nnn[nH]1` [Compound 16p, (S)-N-(1-(1H-Tetrazol-5-yl)-3-(4-(trifluoromethyl)phenyl)propan-2-yl)hexanamide], at hFFA2, the “cAMP pIC50” value was found to be 6.36 ± 0.12, the LLEcAMP came to 3.45 and the IC50 was 0.355 µM. On human FFA2-eYFP, the “GTPγS pIC50” value is given as 6.37 ± 0.44 and the LLEGTPγS came to 3.46.

Regarding `O=C(Cc1ccc(Cl)cc1)N[C@@H](Cc1ccc(C(F)(F)F)cc1)Cc1nnn[nH]1` [Compound 16f, (S)-N-(1-(1H-Tetrazol-5-yl)-3-(4-(trifluoromethyl)phenyl)propan-2-yl)-2-(4-chlorophenyl)acetamide], at hFFA2, the “cAMP pIC50” value is listed as 8.08 ± 0.11, the LLEcAMP was 4.80 and the IC50 was 0.00933 µM. On human FFA2-eYFP, the “GTPγS pIC50” value is on record as 8.07 ± 0.04 and the LLEGTPγS turned out to be 4.79.

With `O=C(Cc1ccncc1)N[C@@H](Cc1ccc(C(F)(F)F)cc1)Cc1nnn[nH]1` [Compound 16t, (S)-N-(1-(1H-Tetrazol-5-yl)-3-(4-(trifluoromethyl)phenyl)propan-2-yl)-2-(pyridin-4-yl)acetamide], at hFFA2, the “cAMP pIC50” value was 5.74 ± 0.13, the LLEcAMP is given as 4.67 and the IC50 is 2.95 µM. In addition, on human FFA2-eYFP, the “GTPγS pIC50” value was 6.47 ± 0.15 and the LLEGTPγS stood at 5.40.
